Common to all, as to type: cell-based
The subject of data set [1] is EpiAirway™ human-derived tracheal/bronchial epithelial cells. The data set can be described thus: Transepithelial electrical resistance (TER) across EpiAirway epithelial cell layer.
Data set [2] has the same test system. Put plainly: FITC-dextran / sample permeation across epithelial cell monolayer. Here is the method:
A FITC labeled dextran with a molecular weight 3000 (FD3) was used to assess the efficacy of individual TJMP on epithelial cell monolayer permeation. The tissue insert plates were transferred to a 96-well receiver plate containing 200 μl of DPBS++ as basal media. The apical surface of each tissue culture insert was incubated with a 20 μl sample of a single test formulation (refer to Table 24 of Example 25 for details of test formulations) for one hour at 37° C. in the dark on a shaker (˜100 rpm). Following the 1-hour incubation period, underlying basal media samples were taken from each tissue culture insert and temporarily stored in the dark at room temperature until FD3 levels were quantified by fluorescence spectroscopy. For FD3 measurements, a 150 μl of basal media sample was transferred to a black, clear bottom 96-well plate. Fluorescence emission at 528/20 following excitation at 485/20 were measured using a FL×800 fluorescence plate reader from Biotek Instruments.
Each tissue insert will be placed in an individual well containing 1 ml of MatTek basal media. On the apical surface of the inserts, 25 μl of test formulation will be applied according to study design, and the samples will be placed on a shaker (˜100 rpm) for 1.5 h at 37° C. FITC-labeled dextran solution is added to inserts apically and a fluorescence measurement is made from the basolateral media after the incubation period. The concentration of FITC-dextran is expressed as a percent of the starting material applied to the cells. A FITC labeled dextran with a molecular weight 4000 (MW4000) was used to assess cargo size limitations on individual TJMP permeation. Of note, various size FITC-labeled dextrans are available to perform size limitation studies.
Fluorescein isothiocyanate (FITC) labeled Dextrin (MW 3,000) was added to the treatment mixture at 0.1-1 mg/ml. The treatment mixture was added to the side of the apical wall, and the plates were incubated at 37° C. in an orbital shaker (New Brunswick Scientific, Edison, N.J.) for the designated time at 100 rpm. At the end of incubation, triplicates of 200 ul of the basal medium were transferred to a dark-wall fluorescent reading plate. Fluorescent intensity at wavelength 470 nm was measured by a microplate fluorescence reader FLx800 (BIO-TEK INSTRUMENTS, INC, Winooski, Vt.). Serial dilutions of standard were used to obtain a standard curve and calculate the concentration. Permeability was measured in two ways, as the ratio of donor mass (the apical chamber) or as the ratio of acceptor mass (the basal chamber), expressed in percentage.

Data set [3] has the same test system. The data set can be described thus: Cytotoxicity (LDH assay). Here is the method: The amount of cell death was assayed by measuring the loss of lactate dehydrogenase (LDH) from the cells using a CytoTox 96 Cytoxicity Assay Kit (Promega Corp., Madison, Wis.). Fifty microliters of sample was loaded into a 96-well assay plates. Fresh, cell-free culture medium was used as a blank. 50 μl of substrate solution was added to each well and the plates incubated for 30 minutes at room temperature in the dark. Following incubation, 50 μl of stop solution was added to each well and the plates read on an optical density plate reader at 490 nm.
The amount of cell death will be assayed by measuring the loss of lactate dehydrogenase (LDH) from the cells using a CytoTox 96 Cytotoxicity Assay Kit (Promega Corp., Madison, Wis.). Fifty microliters of sample will be loaded into a 96-well assay plates. Fresh, cell-free culture medium will be used as a blank. Fifty microliters of substrate solution will be added to each well and the plates incubated for 30 minutes at room temperature in the dark. Following incubation, 50 μl of stop solution will be added to each well and the plates read on an optical density plate reader at 490 nm. The measurement of LDH release into the basolateral media indicates relative cytotoxicity of the samples. One hundred percent lysis of control inserts with 0.3% Octylphenolpoly(ethyleneglycolether)×(TritonX-100) allows LDH values to be expressed as percentage of total lysis.
In some embodiments, The amount of cell death was assayed by measuring the release of lactate dehydrogenase (LDH) from the cells into the apical medium using a CytoTox 96 Cytotoxicity Assay Kit (Promega Corp., Madison, Wis.). One percent Octylphenolpoly (ethyleneglycolether)×(Triton X-100™) diluted in phosphate buffered saline (PBS) causes 100% lysis in cultured cells and served herein as a positive control for the LDH assay. Following the one hour incubation period with a test formulation (refer to Table 24 of Example 25 for details of test formulations), the total liquid volume of each insert was brought to a final volume of 200 μl with culture medium. The apical medium was then mixed by pipetting four times with a multichannel pipette set to a 100 μl volume. After mixing, a 100 μl sample from the apical side of each insert was transferred to a new 96-well plate. The apical media samples were sealed with a plate sealer and stored at room temperature for same day analysis or stored overnight at 4° C. for analysis the next day. To measure LDH levels, 5 μl of the 100 μl apical media sample was diluted in 45 μl DPBS in a new 96-well plate. Fresh, cell-free culture medium will be used as a blank. Fifty microliters of substrate solution was added to each well and incubated for 30 minutes at room temperature away from direct light. Following the 30 minute incubation, 50 μl of stop solution was added to each well. Optical density (OD) was measured at 490 nm with a uQuant absorbance plate reader from Biotek Instruments. The measurement of LDH release into the apical media indicates relative cytotoxicity of the samples. Percent cytotoxicity for each test formulation was calculated by subtracting the measured absorbance of the PBS control (basal level of LDH release) from the measured absorbance of the individual test formulation and then dividing that value by the measured absorbance for the 1% Triton X-100™ positive control, multiplied by 100.
An LDH assay was used to assess the cytotoxicity of the treatments. The LDH level was determined by CytoTox96 Non-Radioactive Cytotoxic Assay (Promega, Madison, Wis.) following the manufacturer's protocol. For basal-lateral LDH levels, triplicates of 50 ul of the basal medium were used to determine the LDH level. For apical LDH level, 150 ul of the diluted apical sample was removed by adding 150 ul of Epi-CM to the apical chamber, the medium was mixed by pipeting up and down, and 150 ul medium was removed and diluted 2× (for a final 8-fold dilution) for assay in triplicates of 50 ul.

[4] abbreviates: 1000 μM, additional assay (in parenthesis).
Where [5] appears, read: 15 minute treatment at the peptide's optimal concentration.
Setting [6] is: 60 minute treatment at the peptide's optimal concentration.

Consider CNGRCGGKKKLKLLLKLL [PN679], for which the “% T0 TER” value in data set [1] (25 μM, 1 h, pH 7) is reported as 70%; in data set [1] (100 μM, 1 h, pH 7) it was 7%; in data set [1] (250 μM, 1 h, pH 7), 2%; in data set [1] (500 μM, 1 h, pH 7) it was −2%; in data set [1] (1000 μM, 1 h, pH 7), −2% (−2%); in data set [1] (setting [4]), −2% (−2%). Further, the “% FD3 Permeation” value was 0% in data set [2] (25 μM, 1 h, FITC dextran MW 3000); 7% in data set [2] (100 μM, 1 h, FITC dextran MW 3000); 8% in data set [2] (250 μM, 1 h, FITC dextran MW 3000); 10% in data set [2] (500 μM, 1 h, FITC dextran MW 3000); 10% (10%) in data set [2] (1000 μM, 1 h, FITC dextran MW 3000); 10% (10%) in data set [2] (setting [4]). Moreover, in data set [2] (based on TER reduction, sample permeation and LDH release), the optimal dose was 100 µM.

For the substance “Maleimide-GLGSLLKKAGKLKLKQPKSKRKV-amide [PN283]”, the TER reduction in data set [1] (100 μM peptide) is listed as 39%; in data set [1] (500 μM peptide), 86%; in data set [1] (1000 μM peptide), 92%. The substance further gave an LDH15 in data set [3] (setting [5]) of 0.0007. For the same substance, in data set [3] (setting [6]), the LDH60 is 0.032. The percent permeation in data set [2] (100 μM peptide) is 0.7%; in data set [2] (500 μM peptide) it was 3.9%; in data set [2] (1000 μM peptide) it was 5.2%. Further, the “% Perm 15” value in data set [2] (setting [5]) is 1.06%. Also, the “% Perm 60” value in data set [2] (setting [6]) is reported as 4.99%. Moreover, the “permeation of FITC-dextran MW4000” value in data set [2] (60 minutes of incubation, peptide at optimal concentration) is given as “approximately 5%”. In addition, the “Optimal Concentration” value in data set [2] (greatest TER reduction with highest permeability and no significant cytotoxicity) was 1000 µM.

The record behind these values is patent US20090220435A1, “TIGHT JUNCTION MODULATING PEPTIDE COMPONENTS FOR ENHANCING MUCOSAL DELIVERY OF THERAPEUTIC AGENTS” (priority 2005, published 2009).
